Source: patent US9617276B2, “Compounds and methods for treating AIDS and HIV infections” (priority 2009, dated 2017)
Like-named read-outs stand apart in the source and are kept apart here.

Assays:
HIV-1 = assay: antiviral assay (IC50); type: cell-based; conditions: read-out: IC50
Protocol: (§1) The inhibitory potencies of acyclic and cyclic inhibitors were measured by the assay protocol of Toth and Marshall (Toth, M. V.; Marshall, G. R. A simple, continuous fluorometric assay for HIV protease. Int. J. Pep. Protien Res. 1990, 36, 544-55).

HIV-1 protease = target: T1, HIV-1 protease (Human immunodeficiency virus type 1 group M subtype B, UniProt P04585); assay: HIV protease enzyme inhibition, fluorometric assay of Toth and Marshall; type: biochemical; conditions: read-out: Ki
T1 construct: A simple, continuous fluorometric assay for HIV protease
Protocol: as §1

[1] = Human immunodeficiency virus 1, Table 2
[2] = Human immunodeficiency virus 1, Table 1, acyclic compounds
[3] = Human immunodeficiency virus 1, Table 4

COc1ccc2c(c1)OCCCCCCCCCCN(CC(O)C(Cc1ccccc1)NC(=O)OC1COC3OCCC13)S2(=O)=O (stereo not shown) [Compound 15a]
IC50 (HIV-1; [1]): < 0.1 µM | Ki (HIV-1 protease; Table 2): < 0.001 µM

COc1ccc2c(c1)OCCCCC=CCC(C)CN(CC(O)C(Cc1ccccc1)NC(=O)OC1COC3OCCC13)S2(=O)=O (stereo not shown) [Compound 21c]
IC50 (HIV-1; Table 4): < 0.1 µM | Ki (HIV-1 protease; Table 4): < 0.001 µM

COc1ccc2c(c1)OCCCCC=CCN(CC(O)C(Cc1ccccc1)NC(=O)OC1COC3OCCC13)S2(=O)=O (stereo not shown) [Compound 14e]
IC50 (HIV-1; [1]): < 0.1 µM | Ki (HIV-1 protease; Table 2): < 0.001 µM

COc1ccc2c(c1)OCCC=CCN(CC(O)C(Cc1ccccc1)NC(=O)OC1COC3OCCC13)S2(=O)=O (stereo not shown) [Compound 14g]
Ki (HIV-1 protease; Table 2): < 0.001 µM

COc1ccc2c(c1)OCCC=CCCCCN(CC(O)C(Cc1ccccc1)NC(=O)OC1COC3OCCC13)S2(=O)=O (stereo not shown) [Compound 14c-E]
IC50 (HIV-1; Human immunodeficiency virus 1, Table 3, E and Z isomers): < 0.01 µM

COc1ccc2c(c1)OCCCCCN1CCC[C@@H]1CN(C[C@@H](O)[C@H](Cc1ccccc1)NC(=O)O[C@H]1CO[C@H]3OCC[C@H]31)S2(=O)=O [Compound 00610A]
Ki (HIV-1 protease; Table 5): > 0.1 µM

C=CCCCCN(CC(O)C(Cc1ccccc1)NC(=O)OC1COC2OCCC12)S(=O)(=O)c1ccc(OC)cc1OCC=C (stereo not shown) [Compound 13d]
Ki (HIV-1 protease; Table 1, acyclic compounds): < 0.01 µM

C=CCCCCN(CC(O)C(Cc1ccccc1)NC(=O)OC1COC2OCCC12)S(=O)(=O)c1ccc(OC)cc1OCCC=C (stereo not shown) [Compound 13c]
Ki (HIV-1 protease; Table 1, acyclic compounds): < 0.01 µM

COc1ccc2c(c1)OCCCCC=CCC(C)CN(CC(O)C(Cc1ccccc1)NC(=O)OC1COC3OCCC13)S2(=O)=O (stereo not shown) [Compound 20b]
IC50 (HIV-1; Table 4): < 0.1 µM | Ki (HIV-1 protease; Table 4): < 0.01 µM

COc1ccc2c(c1)OCCCC=CCN(CC(O)C(Cc1ccccc1)NC(=O)OC1COC3OCCC13)S2(=O)=O (stereo not shown) [Compound 14f]
IC50 (HIV-1; [1]): < 0.1 µM | Ki (HIV-1 protease; Table 2): < 0.001 µM

C=CCOc1cc(OC)ccc1S(=O)(=O)N(CC1CCCN1CC=C)C[C@@H](O)[C@H](Cc1ccccc1)NC(=O)O[C@H]1CO[C@H]2OCC[C@H]21 (stereo partly shown) [Compound 0659A]
Ki (HIV-1 protease; Table 5): > 0.1 µM

COc1ccc2c(c1)OCC/C=C/CN1C(=O)CC[C@@H]1CN(C[C@@H](O)[C@H](Cc1ccccc1)NC(=O)OC(C)(C)C)S2(=O)=O [Compound 00910A]
Ki (HIV-1 protease; Table 5): > 0.1 µM

COc1ccc2c(c1)OCCCCCCCC(C)CN(CC(O)C(Cc1ccccc1)NC(=O)OC1COC3OCCC13)S2(=O)=O (stereo not shown) [Compound 22b]
IC50 (HIV-1; Table 4): < 1 µM | Ki (HIV-1 protease; Table 4): < 0.001 µM

COc1ccc2c(c1)OCC/C=C/CN1CCC[C@H]1CN(C[C@@H](O)[C@H](Cc1ccccc1)NC(=O)O[C@H]1CO[C@H]3OCC[C@H]31)S2(=O)=O [Compound 00810A]
Ki (HIV-1 protease; Table 5): > 0.1 µM

C=CCCCCN(CC(O)C(Cc1ccccc1)NC(=O)OC1COC2OCCC12)S(=O)(=O)c1ccc(OC)cc1OCCCC=C (stereo not shown) [Compound 13b]
IC50 (HIV-1; [2]): > 1 µM | IC50 (HIV-1; Human immunodeficiency virus 1): > 1 µM | Ki (HIV-1 protease; Table 1, acyclic compounds): < 0.1 µM | Ki (HIV-1 protease): 0.011 µM

C=CCCCCOc1cc(OC)ccc1S(=O)(=O)N(CCCCC=C)CC(O)C(Cc1ccccc1)NC(=O)OC1COC2OCCC12 (stereo not shown) [Compound 13a]
IC50 (HIV-1; [2]): > 1 µM | Ki (HIV-1 protease; Table 1, acyclic compounds): < 0.1 µM | Ki (HIV-1 protease): 0.016 µM

C=CCN1C(=O)CC[C@@H]1CN(C[C@@H](O)[C@H](Cc1ccccc1)NC(=O)O[C@H]1CO[C@H]2OCC[C@H]21)S(=O)(=O)c1ccc(OC)cc1 [Compound 01110A]
Ki (HIV-1 protease; Table 5): < 0.001 µM

COc1ccc2c(c1)OCCCCC=CCC(C)CN(CC(O)C(Cc1ccccc1)NC(=O)OC1COC3OCCC13)S2(=O)=O (stereo not shown) [Compound 20c]
IC50 (HIV-1; Human immunodeficiency virus 1): 0.009 µM | IC50 (HIV-1; Table 4): < 0.01 µM | Ki (HIV-1 protease; Table 4): < 0.001 µM | Ki (HIV-1 protease): 0.00031 µM

COc1ccc2c(c1)OCCCCC=CCCCCN(CC(O)C(Cc1ccccc1)NC(=O)OC1COC3OCCC13)S2(=O)=O (stereo not shown) [Compound 14a-Z]
IC50 (HIV-1; Table 3, E and Z isomers): > 1 µM | Ki (HIV-1 protease; Table 3, E and Z isomers): < 0.001 µM

COc1ccc2c(c1)OCCCCCCCCCN(CC(O)C(Cc1ccccc1)NC(=O)OC1COC3OCCC13)S2(=O)=O (stereo not shown) [Compound 15b]
IC50 (HIV-1; [1]): < 0.1 µM | IC50 (HIV-1; Human immunodeficiency virus 1): < 0.049 µM | Ki (HIV-1 protease; Table 2): < 0.001 µM | Ki (HIV-1 protease): < 0.0007 µM

COc1ccc2c(c1)OCCCCC=CCC(C)(C)CN(CC(O)C(Cc1ccccc1)NC(=O)OC1COC3OCCC13)S2(=O)=O (stereo not shown) [Compound 20a]
IC50 (HIV-1; [3]): > 1 µM | Ki (HIV-1 protease; Table 4): < 0.1 µM

COc1ccc2c(c1)OCC/C=C\CN1C(=O)CC[C@@H]1CN(C[C@@H](O)[C@H](Cc1ccccc1)NC(=O)O[C@H]1CO[C@H]3OCC[C@H]31)S2(=O)=O [Compound 01310A]
Ki (HIV-1 protease; Table 5): < 0.1 µM

C=CCCCCOc1cc(OC)ccc1S(=O)(=O)N(CC=C)CC(O)C(Cc1ccccc1)NC(=O)OC1COC2OCCC12 (stereo not shown) [Compound 13e]
IC50 (HIV-1; [2]): < 0.1 µM | Ki (HIV-1 protease; Table 1, acyclic compounds): < 0.01 µM | Ki (HIV-1 protease): 0.0017 µM

COc1ccc2c(c1)OCCC=CCN1C(=O)CC[C@H]1CN(C[C@@H](O)[C@H](Cc1ccccc1)NC(=O)O[C@H]1CO[C@H]3OCC[C@H]31)S2(=O)=O [Compound 01410A]
Ki (HIV-1 protease; Table 5): > 0.1 µM

C=CCCCCOc1cc(OC)ccc1S(=O)(=O)N(CC(C)CC=C)C[C@@H](O)[C@H](Cc1ccccc1)NC(=O)O[C@H]1CO[C@H]2OCC[C@H]21 (single isomer, unassigned) [Compound 19b]
IC50 (HIV-1; Table 4): < 0.1 µM | Ki (HIV-1 protease; Table 4): < 0.01 µM

C=CCCCOc1cc(OC)ccc1S(=O)(=O)N(CC=C)CC(O)C(Cc1ccccc1)NC(=O)OC1COC2OCCC12 (stereo not shown) [Compound 13f]
IC50 (HIV-1; [2]): < 0.1 µM | Ki (HIV-1 protease; Table 1, acyclic compounds): < 0.001 µM

COc1ccc2c(c1)OCC/C=C\CN1C(=O)CC[C@@H]1CN(C[C@@H](O)[C@H](Cc1ccccc1)NC(=O)OC(C)(C)C)S2(=O)=O [Compound 01010A]
Ki (HIV-1 protease; Table 5): > 0.1 µM

COc1ccc2c(c1)OCCCCCCCC(C)CN(CC(O)C(Cc1ccccc1)NC(=O)OC1COC3OCCC13)S2(=O)=O (stereo not shown) [Compound 22c]
IC50 (HIV-1; Table 4): < 0.1 µM | Ki (HIV-1 protease; Table 4): < 0.001 µM

COc1ccc2c(c1)OCCCCCN1C(=O)CC[C@@H]1CN(C[C@@H](O)[C@H](Cc1ccccc1)NC(=O)O[C@H]1CO[C@H]3OCC[C@H]31)S2(=O)=O [Compound 02210A]
Ki (HIV-1 protease; Table 5): < 0.001 µM

C=CCCCCOc1cc(OC)ccc1S(=O)(=O)N(CC(C)CC=C)C[C@@H](O)[C@H](Cc1ccccc1)NC(=O)O[C@H]1CO[C@H]2OCC[C@H]21 (single isomer, unassigned) [Compound 19c]
IC50 (HIV-1; Table 4): > 1 µM | Ki (HIV-1 protease; Table 4): < 0.01 µM

C=CCN1CCCC1CN(C[C@@H](O)[C@H](Cc1ccccc1)NC(=O)O[C@H]1CO[C@H]2OCC[C@H]21)S(=O)(=O)c1ccc(OC)cc1 (stereo partly shown) [Compound 0649A]
Ki (HIV-1 protease; Table 5): < 0.01 µM

COc1ccc2c(c1)OCCCCC=CCC(C)(C)CN(CC(O)C(Cc1ccccc1)NC(=O)OC1COC3OCCC13)S2(=O)=O (stereo not shown) [Compound 21a]
IC50 (HIV-1; Table 4): > 1 µM | Ki (HIV-1 protease; Table 4): < 0.01 µM

COc1ccc2c(c1)OCCCCCCCC(C)(C)CN(CC(O)C(Cc1ccccc1)NC(=O)OC1COC3OCCC13)S2(=O)=O (stereo not shown) [Compound 22a]
IC50 (HIV-1; [3]): > 1 µM | Ki (HIV-1 protease; Table 4): < 0.01 µM

C=CCCOc1cc(OC)ccc1S(=O)(=O)N(CC=C)CC(O)C(Cc1ccccc1)NC(=O)OC1COC2OCCC12 (stereo not shown) [Compound 13g]
Ki (HIV-1 protease; Table 1, acyclic compounds): < 0.001 µM

COc1ccc2c(c1)OCCCCCN1C(=O)CC[C@H]1CN(C[C@@H](O)[C@H](Cc1ccccc1)NC(=O)O[C@H]1CO[C@H]3OCC[C@H]31)S2(=O)=O [Compound 02110A]
Ki (HIV-1 protease; Table 5): < 0.1 µM

COc1ccc2c(c1)OCC/C=C/CN1C(=O)CC[C@@H]1CN(C[C@@H](O)[C@H](Cc1ccccc1)NC(=O)O[C@H]1CO[C@H]3OCC[C@H]31)S2(=O)=O [Compound 01210A]
Ki (HIV-1 protease; Table 5): < 0.001 µM

COc1ccc2c(c1)OCC=CCN(CC(O)C(Cc1ccccc1)NC(=O)OC1COC3OCCC13)S2(=O)=O (stereo not shown) [Compound 14h]
Ki (HIV-1 protease; Table 2): < 0.01 µM
